# According to US8637485B2, “5′,-substituted adenosynes preparation thereof and use as inhibitors of S-adenosylmethionine decarboxylase” (Southern Research Institute, priority 2007, dated 2014):
# Where a name gives a salt, the structure may show the parent alone.
# Target: T1, hAdoMetDC (Homo sapiens, UniProt P17707)
# T1 construct: the enzyme undergoes autoprocessing to give the α and the β subunits; made in house; host or cells: E. coli JM109 (pQE30-based plasmid)
# T1 sequence (P17707 1-67 limits assumed): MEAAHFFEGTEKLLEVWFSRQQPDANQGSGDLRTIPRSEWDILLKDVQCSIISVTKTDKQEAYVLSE
# T1 sequence (P17707 68-328 limits assumed): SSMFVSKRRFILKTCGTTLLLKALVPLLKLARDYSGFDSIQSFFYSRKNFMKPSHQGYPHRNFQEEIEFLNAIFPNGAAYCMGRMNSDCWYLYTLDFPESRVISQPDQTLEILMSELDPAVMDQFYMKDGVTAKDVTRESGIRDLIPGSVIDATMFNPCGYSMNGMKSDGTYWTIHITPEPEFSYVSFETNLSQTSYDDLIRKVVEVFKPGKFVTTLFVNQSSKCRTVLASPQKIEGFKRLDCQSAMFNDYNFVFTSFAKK
# Assay: Assay of AdoMetDC activity (release of 14CO2 from S-adenosyl-L-[carboxy-14C]methionine) and determination of inhibitor IC50 values
# Format: biochemical
# Details: at 100 μM
# Experimental: Assay of AdoMetDC Activity and Determination of Inhibitor IC50 Values
# (§1) AdoMetDC was assayed by measuring the release of ^14CO2 from S-adenosyl-L-[carboxy-^14C]methionine (Amersham Pharmacia Biotech, ˜60 mCi/mmol) (36). […] For determination of the abilities of compounds to inhibit AdoMetDC, the enzyme activity was determined in the presence of no inhibitor and at least 5 concentrations of each potential inhibitor. The IC50 values were determined from curve fitting to plots of the inhibitor concentration versus the % inhibition of AdoMetDC.
# as §1
inhibition [% inhibition at 100 μM],inhibition at 100 µM [%],Structure (SMILES)
<5,,"Cc1nc2c(N)ncnc2n1[C@@H]1O[C@H](CN(C)CC(N)=O)[C@@H](O)[C@H]1O.O=S(=O)(O)O [Compound 13f, 5′-[(Carboxamidomethyl)methylamino]-5′-deoxy-8-methyladenosine sulfate (1.45:1 salt)]"
,< 5,"CNCCNC[C@H]1O[C@@H](n2cnc3c(N)ncnc32)[C@H](O)[C@@H]1O [Compound 15c, 5′-deoxy-5′-(2-methylaminoethylamino)adenosine]"
,< 5,"CNCCNC[C@H]1O[C@@H](n2c(C)nc3c(N)ncnc32)[C@H](O)[C@@H]1O [Compound 15d, 5′-deoxy-8-methyl-5′-(2-methylaminoethylamino)adenosine]"
,< 5,"CN(CCNC(=N)N)C[C@H]1O[C@@H](n2cnc3c(N)ncnc32)[C@H](O)[C@@H]1O [Compound 18a, 5′-Deoxy 5′-[(2-guanidinoethyl)methylamino]adenosine]"
,< 5,"CN(CCN)C[C@H]1O[C@@H](n2cnc3c(N)ncnc32)[C@H](O)[C@@H]1O [Compound 14e, 5′-[(2-Aminoethyl)methylamino]-5′-deoxyadenosine]"
<5,,"CNCCCNC[C@H]1O[C@@H](n2c(-c3ccccc3)nc3c(N)ncnc32)[C@H](O)[C@@H]1O.O=S(=O)(O)O [Compound 15b, 5′-deoxy-5′-(3-methylaminopropylamino)-8-phenyladenosine sulfate (1.7:1 salt)]"
<5,,"CN(CCCCON)C[C@H]1O[C@@H](n2c(-c3ccccc3)nc3c(N)ncnc32)[C@H](O)[C@@H]1O.O=S(=O)(O)O [Compound 9b, 5′-[(4-Aminooxybutyl)methylamino]-5′-deoxy-8-phenyladenosine sulfate (1.75:1 salt)]"
<5,,"CN(CCON)C[C@H]1O[C@@H](n2c(-c3ccccc3)nc3c(N)ncnc32)[C@H](O)[C@@H]1O.CN(CCON)C[C@H]1O[C@@H](n2c(-c3ccccc3)nc3c(N)ncnc32)[C@H](O)[C@@H]1O.O=S(=O)(O)O [Compound 7c, 5′-[(2-Aminooxyethyl)methylamino]-5′-deoxy-8-phenyladenosine sulfate (2:1 salt)]"
<5,,"CN(CCCN)C[C@H]1O[C@@H](n2c(-c3ccccc3)nc3c(N)ncnc32)[C@H](O)[C@@H]1O.O=S(=O)(O)O [Compound 14b, 5′-[(3-Aminopropyl)methylamino]-5′-deoxy-8-phenyladenosine sulfate (2.2:1 salt)]"
<5,,"CNCCCNC[C@H]1O[C@@H](n2c(NC)nc3c(N)ncnc32)[C@H](O)[C@@H]1O.O=S(=O)(O)O [Compound 15a, 5′-deoxy-8-(methylamino)-5′(3-methylaminopropylamino)adenosine sulfate (2.4:1 salt)]"

# Same assay, conditions: at least 5 concentrations; curve fit of inhibitor concentration versus % inhibition of hAdoMetDC
row,IC50 [µM],Structure (SMILES)
1,0.011,"CN(CCCCON)C[C@H]1O[C@@H](n2c(=O)[nH]c3c(N)ncnc32)[C@H](O)[C@@H]1O [Compound 9c, 5′-[(4-Aminooxybutyl)methylamino]-5′-deoxy-8-oxoadenosine sulfate (1.9:1 salt)]"
2,7,"CN(CCC(N)=O)C[C@H]1O[C@@H](n2cnc3c(N)ncnc32)[C@H](O)[C@@H]1O [Compound 13j, 5′-[(2-Carboxamidoethyl)methylamino]-5′-deoxyadenosine sulfate (1.9:1 salt)]"
3,0.17,"Cc1nc2c(N)ncnc2n1[C@@H]1O[C@H](CN(C)CCC(=O)NN)[C@@H](O)[C@H]1O [Compound 13k, 5′-Deoxy-5′-[(2-hydrazinocarbonylethyl)methylamino]-8-methyladenosine sulfate (2:1 salt)]"
4,9,"CN(C)C[C@H]1O[C@@H](n2cnc3c(N)ncnc32)[C@H](O)[C@@H]1O [Compound 19b, 5′-Deoxy-5′-(N,N-dimethylamino)adenosine]"
5,1.5,"CN(CCC(=O)NN)C[C@H]1O[C@@H](n2cnc3c(N)ncnc32)[C@H](O)[C@@H]1O [Compound 13l, 5′-Deoxy-5′-[(2-hydrazinocarbonylethyl)methylamino]-adenosine sulfate (2:1 salt)]"
6,0.018,"CN(CCCCON)C[C@H]1O[C@@H](n2cnc3c(N)ncnc32)[C@H](O)[C@@H]1O [Compound 9f, 5′-[(4-Aminooxybutyl)methylamino]-5′-deoxyadenosine sulfate (2:1 salt)]"
7,4,"CCc1nc2c(N)ncnc2n1[C@@H]1O[C@H](CN(C)CCC(N)=O)[C@@H](O)[C@H]1O [Compound 13e, 5′-[(2-Carboxamidoethyl)methyamino]-5′-deoxy-8-ethyladenosine sulfate (1.1:1 salt)]"
8,31,"Cc1nc2c(N)ncnc2n1[C@@H]1O[C@H](CN(C)CC(=O)NN)[C@@H](O)[C@H]1O [Compound 13m, 5′-Deoxy-5′-[(hydrazinocarbonylmethyl)methylamino]-8-methyladenosine]"
9,420,"CCc1nc2c(N)ncnc2n1[C@@H]1O[C@H](CN(C)CCCN)[C@@H](O)[C@H]1O [Compound 17d, 5′-[(3-Aminopropyl)methylamino]-5′-deoxy-8-ethyladenosine sulfate (2.5:1 salt)]"
10,500,"CN(CCCN)C[C@H]1O[C@@H](n2cnc3c(N)ncnc32)[C@H](O)[C@@H]1O [Compound 14d, 5′-[(3-Aminopropyl)methylamino]-5′-deoxyadenosine sulfate (2:1 salt)]"
11,0.086,"CNc1nc2c(N)ncnc2n1[C@@H]1O[C@H](CN(C)CCON)[C@@H](O)[C@H]1O [Compound 7b, 5′-[(2-Aminooxyethyl)methylamino]-5′-deoxy-8-(methylamino)adenosine sulfate (2.1:1 salt)]"
12,0.049,"CNc1nc2c(N)ncnc2n1[C@@H]1O[C@H](CN(C)CCCCON)[C@@H](O)[C@H]1O [Compound 9a, 5′-[(4-Aminooxybutyl)methylamino]-5′-deoxy-8-(methylamino)adenosine sulfate (0.4:1 salt)]"
13,157,"CN(CCC(=N)NO)C[C@H]1O[C@@H](n2cnc3c(N)ncnc32)[C@H](O)[C@@H]1O [Compound 18c, 5′-Deoxy-5′-[(2-hydroxyamidinoethyl)methylamino]adenosine]"
14,88,"Cc1nc2c(N)ncnc2n1[C@@H]1O[C@H](CN(C)CCN)[C@@H](O)[C@H]1O [Compound 14f, 5′-[(2-Aminoethyl)methylamino]-5′-deoxy-8-methyladenosine]"
15,440,"CNc1nc2c(N)ncnc2n1[C@@H]1O[C@H](CN(C)CCCN)[C@@H](O)[C@H]1O [Compound 14a, 5′-[(3-Aminopropyl)methylamino]-5′-deoxy-8-(methylamino)adenosine sulfate (2.4:1 salt)]"
16,0.005,"Cc1nc2c(N)ncnc2n1[C@@H]1O[C@H](CN(C)CCCCON)[C@@H](O)[C@H]1O [Compound 9d, 5′-[(4-Aminooxybutyl)methylamino]-5′-deoxy-8-methyladenosine sulfate (1.9:1 salt)]"

# Same assay, conditions: versus 8-unsubstituted parent compound
row,reduction in the IC50 value when an 8-methyl substituent was added to the adenine ring [fold],Structure (SMILES)
1,3.4,"Cc1nc2c(N)ncnc2n1[C@@H]1O[C@H](CN(C)CCCCON)[C@@H](O)[C@H]1O [Compound 9d, 5′-[(4-Aminooxybutyl)methylamino]-5′-deoxy-8-methyladenosine sulfate (1.9:1 salt)]"

# Same assay, conditions: versus un-substituted parent compound
row,increase in potency when an adenine 8-methyl substituent was added [fold],Structure (SMILES)
1,8,"Cc1nc2c(N)ncnc2n1[C@@H]1O[C@H](CN(C)CCON)[C@@H](O)[C@H]1O [Compound 7a, 5′-[(2-Aminooxyethyl)methylamino]-5′-deoxy-8-methyladenosine sulfate (2.2:1 salt)]"

# Target: T2, AdoMetDC (Homo sapiens, UniProt P17707)
# T2 sequence (P17707 1-334): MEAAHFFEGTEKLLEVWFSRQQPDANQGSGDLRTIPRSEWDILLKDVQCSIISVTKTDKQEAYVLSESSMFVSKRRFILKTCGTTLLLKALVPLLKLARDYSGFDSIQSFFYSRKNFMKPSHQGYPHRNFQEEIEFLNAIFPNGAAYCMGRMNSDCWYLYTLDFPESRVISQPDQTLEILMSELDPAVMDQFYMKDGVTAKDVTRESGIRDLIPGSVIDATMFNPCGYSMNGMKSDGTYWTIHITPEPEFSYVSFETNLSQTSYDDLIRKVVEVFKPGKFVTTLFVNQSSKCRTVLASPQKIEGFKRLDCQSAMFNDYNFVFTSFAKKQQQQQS
# Assay: not given
# Details: previously reported; cited from earlier work
row,Structure (SMILES),Ki
1,"C[S+](C)C[C@H]1O[C@@H](n2cnc3c(N)ncnc32)[C@H](O)[C@@H]1O [Compound 21d, 5′-Deoxy-5′-dimethylsulfonioadenosine chloride]",in the μM range
